Experimental data taken from US9617244B2, “Antibacterial quinoline derivatives” (JANSSEN PHARMACEUTICA NV, priority 2012, dated 2017).
Converted amounts (≈) assume the structure as drawn.

What was measured:
[1] = tested on: Staphylococcus aureus (ATCC29213); test: In-vitro anti-bacterial activity, microtitre plate assay, IC90 determination (non-mycobacterial strains); type: cell-based; conditions: 90% inhibitory concentration for bacterial growth, resazurin fluorescence; for IC90: Staphylococcus aureus, ATCC29213, 24 h, read-out: IC90 STA B29213; for IC90 STA B29213: 24 hours
Outline: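 Growth inhibition measured fluorometrically with resazurin (530/590 nm) after overnight 37 °C incubation under normal atmosphere. Bacteria added at roughly 100 TCID50 per well in Mueller-Hinton broth to five-fold compound dilution series; IC90 reported in μg/ml.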

[2] = tested on: Mycobacterium smegmatis (ATCC607); test: In-vitro anti-bacterial activity against strain M. Smegmatis ATCC607; type: cell-based; conditions: 90% inhibitory concentration for bacterial growth, Alamar Blue fluorescence; for IC90: Mycolicibacterium smegmatis, ATCC607, 48 h, read-out: IC90 MSM 607; for IC90 MSM 607: 48 hours
Outline: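 IC90 (μg/ml) derived from Alamar Blue fluorescence (530/590 nm) after 48 h growth at 37 °C under 5% CO2. About 250 CFU per well in Mueller-Hinton broth faced five-fold serial compound dilutions in BSA-containing wells.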

Row | SMILES | IC90 [1] [µg/mL] | IC90 [2] [µg/mL] | melting point [°C] | IC90 STA B29213 [1] [µg/mL] | IC90 MSM 607 [2] [µg/mL]
1 | COc1nc2ccc(S(C)(=O)=O)cc2cc1C(c1ccc(Cl)cc1)C1(O)CCNCC1Cc1cccc[n+]1[O-] (stereo not drawn) [Compound 65] | > 14.3 | > 14.3 | 240 |  | 
2 | COc1nc2ccc(S(C)(=O)=O)cc2cc1C(c1ccc(Cl)cc1)C1(O)CCNCC1Cc1cccc[n+]1[O-] (stereo not drawn) [Compound 66] |  |  | 184 | >14.27 | >14.27
3 | CCn1c(=O)c(C(c2ccc(Cl)cc2)C2(O)CCNC(Cc3ccccc3)C2)cc2cc(Br)ccc21 (stereo not drawn) [Compound 82] |  |  | 230 | 2.84 (≈ 5.02 µM) | 1.60 (≈ 2.83 µM)
4 | CCn1c(=O)c(C(c2ccc(Cl)cc2)C2(O)CCNC(Cc3ccccc3)C2)cc2cc(Br)ccc21 (stereo not drawn) [Compound 83] |  |  | 219 | 7.12 (≈ 12.6 µM) | 3.57 (≈ 6.31 µM)
5 | CN1CCC(O)(C(c2ccc(Cl)cc2)c2cc3cc(Br)ccc3[nH]c2=O)CC1Cc1ccccc1 (stereo not drawn) [Compound 84] | 6.95 (≈ 12.6 µM) | 5.52 (≈ 10 µM) | 238 |  | 
6 | COc1nc2ccc(Cl)cc2cc1C(c1ccc(Cl)cc1)C1(O)CCNC(Cc2ccccc2)C1 (stereo not drawn) [Compound 96] |  | 1.01 (≈ 1.99 µM) | 114 | 1.60 (≈ 3.15 µM) | 
7 | COc1nc2ccc(S(C)(=O)=O)cc2cc1C(c1ccc(Cl)cc1)C1(O)CCNC(Cc2ccccc2)C1 (stereo not drawn) [Compound 97] |  |  | 120 | >13.84 | 13.84 (≈ 25.1 µM)
8 | COc1nc2ccc(Br)cc2cc1C(c1ccc(SC)cc1)C1(O)CCNC(Cc2ccccc2)C1 (stereo not drawn) [Compound 100] |  |  | 143 | 7.09 (≈ 12.6 µM) | 7.09 (≈ 12.6 µM)
9 | COc1nc2ccc(Br)cc2cc1C(c1ccc(S(C)(=O)=O)cc1)C1(O)CCNC(Cc2ccccc2)C1 (stereo not drawn) [Compound 103] |  |  | 135 | 14.96 (≈ 25.1 µM) | 14.96 (≈ 25.1 µM)
10 | COc1nc2ccc(Br)cc2cc1C(c1ccc(Cl)cc1)C1(O)CCNC(c2ccc(F)cc2C)C1 (stereo not drawn) [Compound 104] | 1.8 (≈ 3.16 µM) | 1.14 (≈ 2 µM) | 160 |  | 
11 | COc1nc2ccc(Br)cc2cc1C(c1ccc(Cl)cc1)C1(O)CCNC(c2ccc(F)cc2C)C1 (stereo not drawn) [Compound 105] |  |  | 149 | 1.80 (≈ 3.16 µM) | 0.90 (≈ 1.58 µM)
12 | COc1nc2ccc(Br)cc2cc1C(c1ccc(Cl)cc1)C1(O)CCNC(C)C1 (stereo not drawn) [Compound 124] | 3 (≈ 6.3 µM) | 3 (≈ 6.3 µM) | 164 |  | 
13 | COc1nc2ccc(SC)cc2cc1C(c1ccccc1)C1(O)CCNC(Cc2ccccc2)C1 (stereo not drawn) [Compound 142] |  |  | 190 | 3.06 (≈ 6.31 µM) | 2.16 (≈ 4.46 µM)
14 | CS(=O)(=O)c1ccc2[nH]c(=O)c(C(c3ccccc3)C3(O)CCNC(Cc4ccccc4)C3)cc2c1 (stereo not drawn) [Compound 153] | > 12.6 | > 12.6 | 183 |  | 
15 | CS(=O)(=O)c1ccc2[nH]c(=O)c(C(c3ccccc3)C3(O)CCNC(Cc4ccccc4)C3)cc2c1 (stereo not drawn) [Compound 154] |  |  | 250 | >12.63 | >12.63
16 | CS(=O)(=O)c1ccc2[nH]c(=O)c(C(c3ccccc3)C3(O)CCNC(Cc4ccccc4)C3)cc2c1 (stereo not drawn) [Compound 155] |  |  | 194 | >12.63 | >12.63
17 | CS(=O)(=O)c1ccc2[nH]c(=O)c(C(c3ccccc3)C3(O)CCNC(Cc4ccccc4)C3)cc2c1 (stereo not drawn) [Compound 156] |  |  | 254 | >12.63 | 11.25 (≈ 22.4 µM)
18 | COc1nc2ccc(S(C)(=O)=O)cc2cc1C(c1ccccc1)C1(O)CCNC(Cc2ccccc2)C1 (stereo not drawn) [Compound 157] | > 13 | > 13 | 100 |  | 

Row | SMILES | IC90 [1] [µg/mL] | IC90 [2] [µg/mL] | melting point [°C] | IC90 STA B29213 [1] [µg/mL] | IC90 MSM 607 [2] [µg/mL]
19 | COc1nc2ccc(S(C)(=O)=O)cc2cc1C(c1ccccc1)C1(O)CCNC(Cc2ccccc2)C1 (stereo not drawn) [Compound 158] |  |  | 198 | >12.98 | >12.98
20 | COc1nc2ccc(SC)cc2cc1C(c1ccccc1)C1(O)CCNC(c2ccc(F)cc2C)C1 (stereo not drawn) [Compound 168] |  |  | 169 | 3.17 (≈ 6.31 µM) | 1.42 (≈ 2.82 µM)
21 | COc1nc2ccc(S(C)(=O)=O)cc2cc1C(c1cccc(Cl)c1)C1(O)CCNC(c2ccc(F)cc2C)C1 (stereo not drawn) [Compound 171] |  |  | 161 | 7.16 (≈ 12.6 µM) | 5.69 (≈ 10 µM)
22 | COc1nc2ccc(S(C)(=O)=O)cc2cc1C(c1cccc(Cl)c1)C1(O)CCNC(c2ccc(F)cc2C)C1 (stereo not drawn) [Compound 172] |  |  | 170 | 7.16 (≈ 12.6 µM) | 3.59 (≈ 6.31 µM)
23 | CSc1ccc2[nH]c(=O)c(C(c3cccc(Cl)c3)C3(O)CCNC(c4ccc(F)cc4C)C3)cc2c1 (stereo not drawn) [Compound 174] |  |  | 171 | 3.30 (≈ 6.31 µM) | 3.30 (≈ 6.31 µM)
24 | CSc1ccc2[nH]c(=O)c(C(c3cccc(Cl)c3)C3(O)CCNC(c4ccc(F)cc4C)C3)cc2c1 (stereo not drawn) [Compound 175] |  |  | 194 | 2.34 (≈ 4.47 µM) | 3.30 (≈ 6.31 µM)
25 | CSc1ccc2[nH]c(=O)c(C(c3cccc(Cl)c3)C3(O)CCNC(c4ccc(F)cc4C)C3)cc2c1 (stereo not drawn) [Compound 176] |  |  | 192 | 3.30 (≈ 6.31 µM) | 3.30 (≈ 6.31 µM)
26 | CSc1ccc2[nH]c(=O)c(C(c3ccccc3)C3(O)CCNC(c4ccc(F)cc4C)C3)cc2c1 (stereo not drawn) [Compound 178] |  |  | > 250 | 6.15 (≈ 12.6 µM) | 4.89 (≈ 10 µM)
27 | CSc1ccc2[nH]c(=O)c(C(c3ccccc3)C3(O)CCNC(c4ccc(F)cc4C)C3)cc2c1 (stereo not drawn) [Compound 180] |  |  | 186 | 3.08 (≈ 6.3 µM) | 3.08 (≈ 6.3 µM)
28 | CSc1ccc2[nH]c(=O)c(C(c3ccccc3)C3(O)CCNC(c4ccc(F)cc4C)C3)cc2c1 (stereo not drawn) [Compound 181] |  |  | 173 | 6.15 (≈ 12.6 µM) | 9.75 (≈ 20 µM)
29 | COc1nc2ccc(S(C)(=O)=O)cc2cc1C(c1ccccc1)C1(O)CCNC(c2ccc(F)cc2C)C1 (stereo not drawn) [Compound 184] | 13.4 (≈ 25.1 µM) | 13.4 (≈ 25.1 µM) | 172 |  | 
30 | COc1nc2ccc(S(C)(=O)=O)cc2cc1C(c1ccccc1)C1(O)CCNC(c2ccc(F)cc2C)C1 (stereo not drawn) [Compound 185] |  |  | 162 | 13.43 (≈ 25.1 µM) | 8.47 (≈ 15.8 µM)
31 | COc1nc2ccc(S(C)(=O)=O)cc2cc1C(c1ccccc1)C1(O)CCNC(c2ccc(F)cc2C)C1 (stereo not drawn) [Compound 186] |  |  | 166 | 9.51 (≈ 17.8 µM) | 8.47 (≈ 15.8 µM)
32 | COc1nc2ccc(S(C)(=O)=O)cc2cc1C(c1ccccc1)C1(O)CCNC(c2ccc(F)cc2C)C1 (stereo not drawn) [Compound 187] |  |  | 167 | >13.43 | 13.43 (≈ 25.1 µM)
33 | COc1nc2ccc(SC)cc2cc1C(c1ccc(Cl)cc1)C1(O)CCNC(Cc2ccc(F)c(F)c2)C1 (stereo not drawn) [Compound 189] |  |  | 160 | 1.76 (≈ 3.17 µM) | 2.78 (≈ 5.01 µM)
34 | COc1nc2ccc(SC)cc2cc1C(c1ccc(Cl)cc1)C1(O)CCNC(Cc2ccc(F)c(F)c2)C1 (stereo not drawn) [Compound 191] |  |  | 162 | 3.50 (≈ 6.31 µM) | 3.50 (≈ 6.31 µM)
35 | COc1nc2ccc(Br)cc2cc1C(c1ccccc1)C1(O)CCNC(c2ccc(F)cc2C)C1 (stereo not drawn) [Compound 193] |  |  | 147 | 5.35 (≈ 9.99 µM) | 5.35 (≈ 9.99 µM)
36 | COc1nc2ccc(Br)cc2cc1C(c1ccccc1)C1(O)CCNC(c2ccc(F)cc2C)C1 (stereo not drawn) [Compound 194] |  |  | 149 | 1.69 (≈ 3.16 µM) | 2.68 (≈ 5.01 µM)
